Measured values: patent US20240180999A1, “EZRIN PEPTIDE 1 FOR USE IN A METHOD OF TREATING POST COVID-19” (priority 2021, published 2024)
No end group written: not given here.

Legend:
LONG-COVID-19 symptoms = experiment: Treatment of patients suffering from post-COVID-19 syndrome (long COVID) with daily s.c. injection of HEP-1, single case reports; type: in vivo, human
cell cultures = details: R. Ataullakhanov et al. 2005; cited from earlier work
[1] = tested on: inflammatory cytokine production; details: cell cultures; cited from earlier work
[2] = Toxicity at high dosages (general statement); type: in vivo; details: high dosages of 50 mg per kg of body weight per day or higher
Method: The dosage of Ezrin peptide 1 and its analogues of the formula (I) is not particularly critical, as Ezrin peptide 1 and its analogues are not toxic even at high dosages of 50 mg per kg of body weight per day or higher. Preferably, Ezrin peptide 1 and its analogues are administered to an adult human in an amount of at least 0.05 milligrams per day (mg/d), in particular at least 0.1 mg/d, e.g. in an amount of 0.05 to 5 mg/d, in particular 0.1 to 2 mg/d or 0.1 to 1 mg/d or 0.1 to 0.5 mg/d. Typically, for parenteral administrations lower dosages will be required than for oral or rectal administration. To achieve a rapid relief of the symptoms of post-COVID-19 syndrome, it may also be reasonable to administer at least 0.5 mg per day or at least 1 mg per day, e.g. in the range of 0.5 to 5 mg/d, but in other cases a lower dosage may be suitable. It is also possible to start with a higher dosage, e. g. in the range of 0.5 to 5 mg/d, more preferably 0.5 to 3 mg/d and then continue with a lower dosage of e.g. 0.05 to 0.5 mg/d or 0.1 to 0.5 mg/day. A single administration of Ezrin peptide 1 and/or one of its analogues of the formula (I) may be sufficient to ameliorate or even cure the symptoms of a post-COVID-19 syndrome. […] Depending on the severity of the symptoms, this time period is typically in the range of 5 days to 10 weeks and in particular in the range of 10 days to 8 weeks.

## TEKKRRETVEREKE [HEP-1, NH2_Thr-Glu-Lys-Lys-Arg-Arg-Glu-Thr-Val-Glu-Arg-Glu-Lys-Glu_COOH]
LONG-COVID-19 symptoms; Example 1, person, HEP-1 0.2 mg s.c. per day 22 Jan. 2021 until Mar. 10 2021, assessed 10 Mar. 2021
  final clinical outcome of long COVID: complete recovery
LONG-COVID-19 symptoms; Example 1, person, HEP-1 0.2 mg s.c. per day from 22 Jan. 2021, assessed 29 Jan. 2021
  mental ability (short memory) and physical strength (walking distance), interim outcome: remarkable improvement
LONG-COVID-19 symptoms; Example 2, person, ankylosis spondylitis, HEP-1 0.2 mg s.c. per day from 26 Feb. 2021, assessed 4 Mar. 2021
  mental ability (short memory) and physical strength (walking distance), interim outcome: remarkable improvement
LONG-COVID-19 symptoms; Example 2, person, HEP-1 0.2 mg s.c. per day 26 Feb. 2021 until Mar. 17 2021, assessed 17 Mar. 2021
  final clinical outcome of long COVID: complete recovery
LONG-COVID-19 symptoms; Example 3, person, HEP-1 0.2 mg s.c. per day 29 Mar. 2021 until Apr. 24 2021, assessed 23 Apr. 2021
  final clinical outcome of long COVID: complete recovery
LONG-COVID-19 symptoms; Example 3, person, HEP-1 0.2 mg s.c. per day from 29 Mar. 2021, assessed 15 Apr. 2021
  mental ability (short memory) and physical strength (walking distance), interim outcome: remarkable improvement
LONG-COVID-19 symptoms; Example 4, person, HEP-1 0.2 mg s.c. per day for 10 days
  final clinical outcome of long COVID (persisting fatigue syndrome): free of any symptoms
LONG-COVID-19 symptoms; Example 5, person, HEP-1 0.2 mg s.c. per day from 26 Feb. 2021, assessed 12 Mar. 2021
  final clinical outcome of long COVID (fatigue syndrome and cognitive disorder): free of any symptoms
LONG-COVID-19 symptoms; Example 6, person, asthma, HEP-1 2 mg s.c. per day for 10 days, then 0.2 mg s.c. per day for 30 days, after 3 weeks of treatment
  final clinical outcome of long COVID: cured
LONG-COVID-19 symptoms; Example 7, person, HEP-1 0.2 mg s.c. per day, after 11 days of treatment
  final clinical outcome of long COVID (fatigue, cognitive disorder, narcolepsy): symptoms completely disappeared
Cell cultures
  anti-viral effect in cell cultures: shows an anti-viral effect
[1]
  production of pro- and inflammatory cytokins (e.g. IL-1, IL-6, TNF-alpha): reduces
  synthesis of alpha- and beta interferons: induces
[2]
  toxicity: not toxic
